The record followed here is patent US4055637A, “Medicinal preparation for healing wounds and treating dermatites using 1-(chloromethyl)silatrane” (priority 1975, dated 1977).

This data set in a line: solubility and physical properties of the active principle. Type of data set: physicochemical.

On to `ClC[Si]12OCCN(CCO1)CCO2` [1-(chloromethyl)silatrane], for which, where the note is “alcohol”, the solubility in alcohol entry was “difficultly soluble”. Further, the solubility in chloroform result (chloroform) is given as “readily soluble”. Besides, the sterilizability result (dry state) was “sterilizable in a dry state”. For the setting “ether”, the solubility in ether result was “insoluble”. Moreover, the solubility in water entry (water) is given as “poorly soluble”. Also, the hygroscopicity entry (white crystalline powder) is “non-hygroscopic”.
